In patent US5561161A, “Methods of administering and pharmaceutical formulations containing n-substituted benzamides and/or acid addition salts thereof” (priority 1994, dated 1996):
Entries after “also recorded” stand apart in the source; their conditions may differ. Structures can show the parent of a compound that is named as a salt. Where two headings read alike, the source gives them in different places.

How the values were obtained:
[1] = cited from earlier work
human cancer patients = conditions: intravenous, cisplatin chemotherapy; cited from earlier work
[2] = system: 5-hydroxytryptamine3 (5-HT3) receptor; conditions: cited from earlier work
dopamine2 (D2) receptor = conditions: cited from earlier work
[3] = system: human lung adenocarcinoma (H-2981); assay: Radiosensitization of human lung adenocarcinoma xenografts in Scid mice; conditions: 2 mg/kg i.m., -1 or -2 hours to 1 Gy; hydrochloride
Method: Tumor tissue suspensions were prepared and inoculated subcutaneously into the midback region of 3-5 week old Scid mice so that 10 mm×10 mm tumors were grown in about 25 days. […] The tumor volumes were measured and recorded every 2-3 days and analyzed by a t-test at day 17 after inoculation.

Structure (SMILES) | solubility in water / aqueous vehicles [1] | inhibition of emesis (human cancer patients) | binding to 5-HT3 receptor [2] | binding to D2 receptor (dopamine2 (D2) receptor) | sodium ion dependence of D2 receptor binding (dopamine2 (D2) receptor) | solubility in water / aqueous vehicles ([1]; hydrochloride) | radiosensitization, effect of pH (acidic vs neutral form) [3]
CCN(CC)CCNC(=O)c1cc(Cl)c(N)cc1OC [metoclopramide] | quite insoluble in water | can inhibit the biological response of emesis | known to bind | known to bind | sodium ion dependent | – | –
CCN(CC)CCNC(=O)c1cc(Cl)c(N)cc1OC [metoclopramide hydrochloride] | – | – | – | – | – | freely soluble in water | not altered; also recorded: Lack of any measurable difference
